Laboratory results taken from patent US5820881A, “Microspheres of diamide-dicarboxylic acids” (Emisphere Technologies, Inc., priority 1995, dated 1998).
Entries after “also recorded” stand apart in the source; their conditions may differ. Where a name gives a salt, the structure may show the parent alone. Read-outs that look alike come from different tables or passages of the source.

Experiments:
Type in all cases: physicochemical
[1] = Microsphere formation (Li2CO3 solution mixed with aqueous citric acid; microscopic examination); conditions: for Microsphere formation / self-assembly: aqueous salt solution + citric acid; for Diameter of spheres: from 10 μm to submicrons, light microscopy
Experimental: The bis-amide dicarboxylic acid prepared according to the method of Example 4 was dissolved in 0.1 mL of aqueous Li2 CO3 (0.1M) to yield a clear solution of the lithium salt in deionized water. 50 μL of the 0.1M solution was mixed with 50 μL of 1M aqueous citric acid and shaken. A white suspension was generated.
The method of Example 17 was followed, substituting the bis-amide dicarboxylic acid prepared according to the method of Example 5. A white suspension was generated.
The method of Example 17 was followed, substituting the bis-amide dicarboxylic acid prepared according to the method of Example 6. A white suspension was generated.
The method of Example 17 was followed, substituting the bis-amide dicarboxylic acid prepared according to the method of Example 15. A white suspension was generated.

[2] = Concentration dependence of microsphere formation (turbidity, % transmittance at 600 nm); conditions: for Concentration of amide above which a dense suspension (% T < 0.5) of microspheres is formed: 500 mM citric acid (pH 2.4)
Experimental: A stock solution containing the lithium salt of the diamide prepared according to the method of Example 4 was prepared by stepwise addition of exactly two equivalents of a standardized solution of LiOH (stored under argon to prevent precipitation of lithium carbonate). The final concentration of the dilithium salt of the diamine was 100 mM, and the pH was always between 7.0 and 8.0. The solution was filtered through a 0.2 μm membrane prior to use. An appropriate amount of the 100 mM stock solution was diluted with deionized water to 500 μL. Microsphere formation was then initiated by addition of an equal volume of 1M citric acid, so that the final concentration ranged from 0 to 50 mM dilithium diamide in 500 mM citric acid with the pH below 2.5. Turbidity was assessed over this range of concentrations by measuring % transmittance at 600 nm. […]
(§1) Each of the compounds of Examples 4-6 and 15 was evaluated by monitoring the change in the solution turbidity, while altering the pH at a fixed Phe amide concentration or by holding the pH constant and varying the concentration of the amide substrate. Each concentration dependence was determined in 500 mM citric acid from a plot of the solution transmittance (% T) vs. concentration. […] The influence of pH on solution turbidity was studied in solutions containing 50 mM in 500 mM lithium citrate buffers. The percent transmittance (% T) was <0.5% at pH 2.67 and >95% at pH 3.26. The pKas were determined by titration of each Phe amide substrate. As expected, the pKas of these Phe diamide diacids were all very similar.

[3] = pH dependence of microsphere formation (turbidity, % transmittance at 600 nm); conditions: for pH at which % T is > 95%: amide concentration 50 mM in 500 mM Li citrate
Experimental: 500 μL of 100 mM dilithium diamide solution prepared according to the method of Example 21 was mixed with an equal volume of one of a series of 1M lithium citrate buffers containing between 0 to 1 equivalent of lithium hydroxide so that the final measured pH of the mixture ranged from ca. 2.4 to 4.0. Turbidity was assessed over this pH range by measuring % transmittance at 600 nm.
The method of Example 25 was followed substituting the bis-amide dicarboxylic acid prepared according to the method of Example 5.
The method of Example 25 was followed substituting the bis-amide dicarboxylic acid prepared according to the method of Example 6.
The method of Example 25 was followed substituting the bis-amide dicarboxylic acid prepared according tot he method of Example 15.
as §1

[4] = pKa determination by titration
Experimental: as §1

[5] = SEM/TEM examination of microcapsules (tannic acid / OsO4 fixation)
Experimental: The sodium salt of the bis-amide dicarboxylic acid of Example 6 was prepared. A white suspension was prepared by combining 100 μL of 0.43M citric acid and 50 μL of a 0.1M aqueous solution of the sodium salt of the diamide. The aqueous suspension was deposited on polylysine-coated glass coverslips and fixed with 2% OsO4 for 4 hours. The sample was washed with distilled water, air dried and sputter coated with gold. SEM photographs are illustrated in FIGS. 3a and 3b.
A white suspension was also prepared by adding a solution containing 50 μL of a 0.86M citric acid and 50 μL of 3 wt. % tannic acid to 50 μL of a 100 mM aqueous solution of the sodium salt of the diamide. The pH was lowered from 7.7 to 2.4. The aqueous solution was deposited on a Nucleopore filter and fixed with 4% OsO4 for 4 hours. The sample was washed with distilled water and 95% EtOH and was air dried. The sample was dispersed in 100% LR white resin and polymerized in an oven at 60° C. TEM photographs are illustrated in FIG. 4.
Estimates of the microcapsule shell thickness (150 nm) would require approximately 100 molecules of the diamide of Example 6 oriented end-to-end to traverse the microcapsule shell. However, a stacking of the bis amides seems more likely. A stacked array would allow for a greater number of assembled tetrapeptides to traverse the capsule shell. […] However, some tannic acid may be intercalated in the microsphere wall.

| Diameter of spheres [1] [μm] | Concentration of amide above which a dense suspension (% T < 0.5) of microspheres is formed [2] [µM] | pH at which % T is > 95% [3] | pKa ([4]; read-out: pKa1) | pKa ([4]; read-out: pKa2) | SMILES | Microsphere formation / self-assembly [1] | further results |
| --- | --- | --- | --- | --- | --- | --- | --- |
| ≤ 10 | 30000 | 3.26 | 3.67 | 4.7 | O=C(CC(=O)N[C@@H](Cc1ccccc1)C(=O)O)N[C@@H](Cc1ccccc1)C(=O)O [Example 4, bis(Nα-amido-L-phenylalanine) malonate] | formation of tiny spheres; also recorded: generated microcapsules | % transmittance, clear solution ([2]; 500 mM citric acid, before transition at 30 mM, 600 nm): > 95 % T; % transmittance, dense suspension of microcapsules ([2]; 500 mM citric acid, diamide above 30 mM, 600 nm): 0.2 % T; Percent transmittance (% T) at pH 2.67 ([3]; 50 mM in 500 mM lithium citrate buffers, pH 2.67): < 0.5%; Percent transmittance (% T) at pH 3.26 ([3]; 50 mM in 500 mM lithium citrate buffers, pH 3.26): > 95%; Estimated number of diamide molecules per one anionic species sufficient to abort assembly ([3]; estimated from pKa and pH measurements): ~30 molecules |
| ≤ 10 | 25000 | 3.26 | 3.55 | 4.62 | CC(C)(C(=O)N[C@@H](Cc1ccccc1)C(=O)O)C(=O)N[C@@H](Cc1ccccc1)C(=O)O [Example 5, bis(Nα-amido-L-phenylalanine) 1,1-dimethyl malonate] | formation of tiny spheres | – |
| ≤ 10 | 13000 | 3.26 | 3.53 | 4.5 | O=C(O)[C@H](Cc1ccccc1)NC(=O)C1(C(=O)N[C@@H](Cc2ccccc2)C(=O)O)CC1 [Example 6, bis(Nα-amido-L-phenylalanine) 1,1 -cyclopropane dicarboxylate] | formation of tiny spheres | Incorporation of tannic acid into the microsphere shell [5]: Little tannic acid was incorporated into the microsphere shell; Molecules oriented end-to-end required to traverse the microcapsule shell ([5]; shell thickness 150 nm): approximately 100 molecules; Estimated microcapsule shell thickness ([5]; sodium salt, citric acid + tannic acid, TEM): ~150 nm |
| – | – | – | – | – | O=C(N[C@@H](Cc1ccccc1)C(=O)O)C(=O)N[C@@H](Cc1ccccc1)C(=O)O [Example 8, bis(Nα-amido-L-phenylalanine) oxalate] | neither the oxalic derivative of Example 8 nor the succinic analogue of Example 12 did; also recorded: did not form microspheres | – |
| – | – | – | – | – | O=C(O)CCC(=O)N[C@@H](Cc1ccccc1)C(=O)O [Example 11, (Nα-amido-L-phenylalanine) monosuccinate] | did not form microspheres | – |
| – | – | – | – | – | O=C(CCC(=O)N[C@@H](Cc1ccccc1)C(=O)O)N[C@@H](Cc1ccccc1)C(=O)O [Example 12, bis(Nα-amido-L-phenylalanine) succinate] | neither the oxalic derivative of Example 8 nor the succinic analogue of Example 12 did; also recorded: does not self assemble; also recorded: did not form microspheres | – |
| ≤ 10 | 23000 | 3.26 | 3.7 | 4.87 | O=C(/C=C\C(=O)N[C@@H](Cc1ccccc1)C(=O)O)N[C@@H](Cc1ccccc1)C(=O)O [Example 15, bis(Nα-amido-L-phenylalanine) maleate] | formation of tiny spheres; also recorded: generated microcapsules | – |
| – | – | – | – | – | O=C(/C=C/C(=O)N[C@@H](Cc1ccccc1)C(=O)O)N[C@@H](Cc1ccccc1)C(=O)O [Example 16, bis(Nα-amido-L-phenylalanine) fumarate] | did not form microspheres | – |
